Active and inactive are the calls of the source. The calls are words filed in the database; no cut-off is given here.
What was measured:
[1] = target: T1, Free fatty acid receptor 4 (Mus musculus, UniProt Q7TMA4); assay: Agonist activity at mouse GPR120 expressed in CHOK1 cells assessed as induction of IP1 accumulation after 60 mins by HTRF assay; type: functional, cell-based, CHO-K1
T1 sequence (Q7TMA4 whole entry): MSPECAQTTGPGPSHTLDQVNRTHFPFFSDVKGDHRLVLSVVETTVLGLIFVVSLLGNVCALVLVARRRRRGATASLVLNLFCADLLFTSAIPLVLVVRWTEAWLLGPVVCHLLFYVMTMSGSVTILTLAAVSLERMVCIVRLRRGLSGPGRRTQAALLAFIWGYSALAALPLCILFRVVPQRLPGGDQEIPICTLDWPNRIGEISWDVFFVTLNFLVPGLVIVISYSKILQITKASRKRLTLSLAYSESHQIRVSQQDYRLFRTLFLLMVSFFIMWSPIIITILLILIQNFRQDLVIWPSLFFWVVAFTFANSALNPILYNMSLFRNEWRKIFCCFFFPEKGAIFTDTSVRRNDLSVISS

[2] = target: T2, Peroxisome proliferator-activated receptor gamma (Homo sapiens) (UniProt P37231); assay: Displacement of [3H]Rosiglitazone from recombinant human PPARgamma expressed in insect cells
T2 sequence (whole entry): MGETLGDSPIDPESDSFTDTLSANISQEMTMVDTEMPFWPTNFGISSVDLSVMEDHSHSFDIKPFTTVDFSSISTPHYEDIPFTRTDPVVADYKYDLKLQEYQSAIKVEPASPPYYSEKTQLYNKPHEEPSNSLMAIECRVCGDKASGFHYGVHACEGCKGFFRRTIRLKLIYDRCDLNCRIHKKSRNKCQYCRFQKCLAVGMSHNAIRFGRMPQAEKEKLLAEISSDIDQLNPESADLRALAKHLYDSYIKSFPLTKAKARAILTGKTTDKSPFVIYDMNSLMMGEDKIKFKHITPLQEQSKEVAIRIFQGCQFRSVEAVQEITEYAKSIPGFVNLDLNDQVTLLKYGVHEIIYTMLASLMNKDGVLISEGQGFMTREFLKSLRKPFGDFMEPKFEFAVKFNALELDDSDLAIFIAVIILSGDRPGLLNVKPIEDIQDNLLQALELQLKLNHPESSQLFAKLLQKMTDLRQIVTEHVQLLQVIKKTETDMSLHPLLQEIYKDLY

Cytochrome P450 3A4 = Cytochrome P450 3A4 (Homo sapiens, UniProt P08684); assay: Inhibition of human CYP3A4; type: ADME
Cytochrome P450 3A4, sequence (P08684 whole entry): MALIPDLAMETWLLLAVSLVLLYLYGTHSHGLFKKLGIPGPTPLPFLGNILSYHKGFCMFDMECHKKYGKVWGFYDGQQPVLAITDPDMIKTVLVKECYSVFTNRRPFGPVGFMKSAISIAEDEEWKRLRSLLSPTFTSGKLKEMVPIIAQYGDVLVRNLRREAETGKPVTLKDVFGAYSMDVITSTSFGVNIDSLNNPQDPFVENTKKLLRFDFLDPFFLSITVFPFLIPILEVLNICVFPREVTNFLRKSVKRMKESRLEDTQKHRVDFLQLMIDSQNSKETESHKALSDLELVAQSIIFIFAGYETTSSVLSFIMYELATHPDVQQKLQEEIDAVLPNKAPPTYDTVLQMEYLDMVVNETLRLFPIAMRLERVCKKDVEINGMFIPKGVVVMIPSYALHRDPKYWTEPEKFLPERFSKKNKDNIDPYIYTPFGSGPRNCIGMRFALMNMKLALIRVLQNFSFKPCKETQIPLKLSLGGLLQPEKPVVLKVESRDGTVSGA

[3] = target: T3, Peroxisome proliferator-activated receptor alpha (Homo sapiens) (UniProt Q07869); assay: Binding affinity to human PPARalpha
T3 sequence (whole entry): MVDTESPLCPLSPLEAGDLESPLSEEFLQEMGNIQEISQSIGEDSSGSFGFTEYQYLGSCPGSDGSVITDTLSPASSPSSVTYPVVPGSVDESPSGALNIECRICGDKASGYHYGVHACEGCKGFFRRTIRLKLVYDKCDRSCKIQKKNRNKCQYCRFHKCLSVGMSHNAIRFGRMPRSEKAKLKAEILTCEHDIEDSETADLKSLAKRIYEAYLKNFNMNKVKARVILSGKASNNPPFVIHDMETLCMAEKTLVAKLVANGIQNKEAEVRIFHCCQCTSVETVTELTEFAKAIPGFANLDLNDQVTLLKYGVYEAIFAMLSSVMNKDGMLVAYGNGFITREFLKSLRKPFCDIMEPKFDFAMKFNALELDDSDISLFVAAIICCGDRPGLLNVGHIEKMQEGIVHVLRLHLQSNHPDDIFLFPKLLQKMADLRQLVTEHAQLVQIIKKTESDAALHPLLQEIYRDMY

Cytochrome P450 2D6 = Cytochrome P450 2D6 (Homo sapiens, UniProt P10635); assay: Inhibition of human CYP2D6; type: ADME
Cytochrome P450 2D6, sequence (P10635 whole entry): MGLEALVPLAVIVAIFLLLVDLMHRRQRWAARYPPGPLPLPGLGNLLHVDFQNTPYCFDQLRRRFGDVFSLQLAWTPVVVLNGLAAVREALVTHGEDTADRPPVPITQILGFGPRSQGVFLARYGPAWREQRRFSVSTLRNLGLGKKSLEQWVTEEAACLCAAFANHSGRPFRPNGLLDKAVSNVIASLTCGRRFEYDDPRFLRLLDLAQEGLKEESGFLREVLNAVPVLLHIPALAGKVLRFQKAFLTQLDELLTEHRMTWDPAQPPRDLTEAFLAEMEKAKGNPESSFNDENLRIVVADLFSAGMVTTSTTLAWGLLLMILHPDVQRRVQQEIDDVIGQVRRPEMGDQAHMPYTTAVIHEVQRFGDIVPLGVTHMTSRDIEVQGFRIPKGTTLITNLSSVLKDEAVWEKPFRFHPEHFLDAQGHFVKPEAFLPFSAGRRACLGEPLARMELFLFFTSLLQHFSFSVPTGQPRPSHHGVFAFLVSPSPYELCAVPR

[4] = AUC in rat at 1 mg/kg, iv by LC/MS/MS analysis; type: ADME, organism-based; details: in vivo
[5] = Volume of distribution at steady state in rat at 1 mg/kg, iv or 2 mg/kg, po by LC/MS/MS analysis; type: ADME, organism-based; details: in vivo, read-out: Vdss
[6] = MRT in rat at 1 mg/kg, iv or 2 mg/kg, po by LC/MS/MS analysis; type: ADME, organism-based; details: in vivo
[7] = Oral bioavailability in rat at 2 mg/kg by LC/MS/MS analysis; type: ADME, organism-based; details: in vivo
[8] = Protein binding in rat plasma at 1 mg/kg, iv or 2 mg/kg, po by LC/MS/MS analysis; type: ADME, organism-based; details: read-out: PPB (converted)
[9] = Plasma clearance in mouse at 2 mg/kg, iv or 10 mg/kg, po by LC/MS/MS analysis; type: ADME, organism-based
[10] = Volume of distribution at steady state in mouse at 2 mg/kg, iv or 10 mg/kg, po by LC/MS/MS analysis; type: ADME, organism-based; details: in vivo, read-out: Vdss
[11] = MRT in mouse at 2 mg/kg, iv or 10 mg/kg, po by LC/MS/MS analysis; type: ADME, organism-based; details: in vivo
[12] = Oral bioavailability in mouse at 10 mg/kg by LC/MS/MS analysis; type: ADME, organism-based; details: in vivo
[13] = Protein binding in mouse plasma at 2 mg/kg, iv or 10 mg/kg, po by LC/MS/MS analysis; type: ADME, organism-based; details: read-out: PPB (converted)
[14] = Plasma clearance in dog at 1 mg/kg, iv or 2 mg/kg, po by LC/MS/MS analysis; type: ADME, organism-based, Canis lupus familiaris
[15] = Volume of distribution at steady state in dog at 1 mg/kg, iv or 2 mg/kg, po by LC/MS/MS analysis; type: ADME, organism-based, Canis lupus familiaris; details: in vivo, read-out: Vdss
[16] = MRT in dog at 1 mg/kg, iv or 2 mg/kg, po by LC/MS/MS analysis; type: ADME, organism-based, Canis lupus familiaris; details: in vivo
[17] = Oral bioavailability in dog at 2 mg/kg by LC/MS/MS analysis; type: ADME, organism-based, Canis lupus familiaris; details: in vivo
[18] = AUC in rhesus monkey at 0.5 mg/kg, iv by LC/MS/MS analysis; type: ADME, organism-based, Macaca mulatta; details: in vivo
[19] = MRT in rhesus monkey at 0.5 mg/kg, iv or 1 mg/kg, po by LC/MS/MS analysis; type: ADME, organism-based, Macaca mulatta; details: in vivo
[20] = Oral bioavailability in rhesus monkey at 1 mg/kg by LC/MS/MS analysis; type: ADME, organism-based, Macaca mulatta; details: in vivo
[21] = Antidiabetic activity in C57BL/6 mouse at 30 mg/kg, po administered 60 mins via gavage prior to dextrose challenge measured up to 120 mins post dextrose challenge by oGTT; type: functional, organism-based
Mus musculus [22] = assay: Antidiabetic activity in diet-induced obese mouse assessed as insulin sensitivity by measuring reduction in glucose at 30 mg/kg, po qd administered daily via gavage for 14 days measured on day 14 post dose; type: functional, organism-based
Mus musculus [23] = assay: Antidiabetic activity in diet-induced obese mouse assessed as insulin sensitivity by measuring reduction in glucose at 30 mg/kg, po qd administered daily via gavage for 28 days measured on day 28 post dose; type: functional, organism-based
Mus musculus [24] = assay: Decrease in insulin levels in diet-induced obese mouse at 30 mg/kg, po qd administered daily via gavage for 14 days measured on day 14 post dose; type: functional, organism-based
Mus musculus [25] = assay: Antidiabetic activity in diet-induced obese mouse assessed as reduction in homeostatic model assessment of insulin resistance at 30 mg/kg, po qd administered daily via gavage for 28 days measured on day 28 post dose; type: functional, organism-based

**Q.** For `O=C(O)CC1CCC2(CC1)CCN(c1cc(OC(F)(F)F)ccc1Cl)CC2`, which EC50 [1] is on record?
**A.** The EC50 was 33 nM.

**Q.** And the INH [2]?
**A.** The INH was greater than 10 µM.

**Q.** What about the INH (Cytochrome P450 3A4) of the same molecule?
**A.** The INH was greater than 48 µM.

**Q.** What about the Activity [3] of the same molecule?
**A.** Its Activity is greater than 10 µM.

**Q.** And the INH (Cytochrome P450 2D6)?
**A.** The INH was greater than 48 µM.

**Q.** What about the AUC [4] of the same molecule?
**A.** Its AUC is 17.5 µM·h.

**Q.** And the Vd [5]?
**A.** Its Vd is 0.4 L/kg.

**Q.** And the MRT [6]?
**A.** The MRT was 3 h.

**Q.** What about the bioavailability [7] of the same molecule?
**A.** Its bioavailability is 95%.

**Q.** And the fraction unbound [8]?
**A.** Its fraction unbound is 0.0013.

**Q.** And the clearance [9]?
**A.** Its clearance is 8.4 mL/min/kg.

**Q.** And the Vd [10]?
**A.** Its Vd is 8.9 L/kg.

**Q.** What about the MRT [11] of the same molecule?
**A.** The MRT was 26.5 h.

**Q.** And the bioavailability [12]?
**A.** Its bioavailability is 100%.

**Q.** And the fraction unbound [13]?
**A.** The fraction unbound was 0.0021.

**Q.** What about the clearance [14] of the same molecule?
**A.** Its clearance is 9.8 mL/min/kg.

**Q.** What about the Vd [15] of the same molecule?
**A.** Its Vd is 6.7 L/kg.

**Q.** What about the MRT [16] of the same molecule?
**A.** The MRT was 10.5 h.

**Q.** And the bioavailability [17]?
**A.** Its bioavailability is 100%.

**Q.** What about the AUC [18] of the same molecule?
**A.** The AUC was 8.7 µM·h.

**Q.** And the MRT [19]?
**A.** Its MRT is 10.1 h.

**Q.** What about the bioavailability [20] of the same molecule?
**A.** Its bioavailability is 77%.

**Q.** And the Activity [21]?
**A.** Its Activity is “Active”.

**Q.** And the Activity (Mus musculus [22])?
**A.** The Activity was “Active”.

**Q.** What about the Activity (Mus musculus [23]) of the same molecule?
**A.** The Activity was “Active”.

**Q.** What about the Activity (Mus musculus [24]) of the same molecule?
**A.** Its Activity is “Active”.

**Q.** What about the Activity (Mus musculus [25]) of the same molecule?
**A.** Its Activity is “Active”.

— ChEMBL document CHEMBL3872283, “Design, Synthesis, and Evaluation of Novel and Selective G-protein Coupled Receptor 120 (GPR120) Spirocyclic Agonists” (ACS Med Chem Lett, 2017)
